Measurements taken from patent publication US9688733B2, “Method for treating spinal cord injury using HMGB1 fragment” (GENOMIX CO., LTD, priority 2012, dated 2017).
Entries after “also recorded” stand apart in the source; their conditions may differ.

Experiments:
[1] = system: mouse bone marrow mesenchymal stem cell line (MSC-1 cell); test: Migration-promoting activity in chemotaxis chamber; assay type: cell-based; conditions: MSC-1 cells; for migration-promoting activity: 100 μg/ml in lower chamber, positive control full-length mouse HMGB1 (1-215(HEK)), FIG. 1A
Description: The peptides listed below were custom synthesized using the solid phase method by Medical & Biological Laboratories (MBL). The peptides were synthesized based on the mouse HMGB1 sequence. Amino acid sequences from positions 1 to 169 of mouse HMGB1 and human HMGB1 are identical, i.e., shares 100% sequence homology.
the full-length mouse HMGB1 produced in HEK293 (1-215(HEK)) as a positive control were adjusted to 100 μg/ml and placed in the lower chamber of a chemotaxis chamber to assess the migration-promoting activity on mouse bone marrow mesenchymal stem cell line (MSC-1 cell; produced by Osaka University, Tamai et al., (Tamai et al., Proc Natl Acad Sci USA., 108(16): 6609-6614, 2011)). (Results)
As positive controls, centrifuged supernatant of the skin of a one-day-old mouse (one individual) incubated in PBS at 4° C. for 12 hours, and the full-length mouse HMGB1 produced in HEK293 (1-215(HEK)) were used. Cells of a bone marrow mesenchymal stem cell line (MSC-1) were placed in the upper chamber of a chemotaxis chamber, and the protein and synthetic peptides were added at a concentration of 5 μM or 10 μM to the lower chamber of the chemotaxis chamber. The migration assay was carried out by the same method as described above.

[2] = system: C57BL6/J mice with traumatic injury of the spinal cord; test: Neurologic symptoms (Basso Mouse Scale score) in mice with traumatic injury of the spinal cord; assay type: in vivo; conditions: five daily administrations
From the text: (§1) Seven-week-old female C57BL6/J mice were used as test animals. After the mice were anesthetized by isoflurane inhalation, skin incision was made along the dorsal midline, and the vertebral arch of the ninth thoracic vertebra was exposed and excised. Dura mater was exposed at the same site, and the spinal cord was held epidurally for three seconds using a microneedle holder to produce a traumatic injury of the spinal cord. After generation of injury of the spinal cord, the skin was sutured. […] The assay reagent was prepared by diluting 100 μg of an HMGB1 fragment (amino acid sequence: amino acids of positions 11 to 44; synthesized peptide produced at MBL) in 200 μL of Dulbecco's PBS (D-PBS). 200 μL of D-PBS was used for the negative control. On the next day of operation, the first administration was performed through the tail vein, and this was followed by a total of five daily administrations. Neurologic symptoms were assessed using the Basso Mouse Scale (BMS) score on Days 1, 3, 7, 10, 14, 17, and 21 post operation.
Seven-week-old female C57BL6/J mice were used as test animals. After the mice were anesthetized by isoflurane inhalation, skin incision was made along the dorsal midline, and the vertebral arch of the ninth thoracic vertebra was exposed and excised. Dura mater was exposed at the same site, and the spinal cord was held epidurally for three seconds using a microneedle holder to produce a traumatic injury of the spinal cord. After production of injury of the spinal cord, the skin was sutured. […] An HMGB1 fragment (amino acid sequence: the amino acids of positions 11 to 44; synthetic peptide produced at MBL) was prepared by diluting 100 μg of the fragment in 200 μL of Dulbecco's PBS (D-PBS). The full-length HMGB1 protein was produced by expressing it in HEK293 as reported previously, and the purified HMGB1 (100 μg) was dissolved in 200 μL of D-PBS. 200 μL of D-PBS was used for the negative control. On the next day of operation, the first administration was performed through the tail vein, and this was followed by a total of five daily administrations. Neurologic symptoms were assessed using the BMS score on Days 1, 3, 7, and 14 post operation.
Seven-week-old female C57BL6/J mice were used as test animals. The mice were anesthetized by isoflurane inhalation, skin incision was made along the dorsal midline, and the vertebral arch of the ninth thoracic vertebra was exposed and excised. Dura mater was exposed at the same site, and the spinal cord was held epidurally for three seconds using a microneedle holder to produce a traumatic injury of the spinal cord. After production of injury of the spinal cord, the skin was sutured. […] HMGB1 fragments (amino acid sequences: amino acids from positions 11 to 44 and amino acids from positions 1 to 44; synthetic peptides produced at MBL) were prepared by diluting 100 μg of the fragment in 200 μL of D-PBS. 200 μL of D-PBS was used for the negative control. On the next day of operation, the first administration was performed via the tail vein, and this was followed by a total of five daily administrations. Neurologic symptoms were assessed using the BMS score on Days 1, 3, 7, 10, 14, 17, 21, and 28 post operation.

[3] = system: C57BL6/J mice with traumatic injury of the spinal cord; test: HE staining of the damaged region of the spinal cord; assay type: in vivo, mouse; conditions: Example 2, 100 μg tail vein, five daily administrations, vs negative control (PBS), FIG. 2B
From the text: as §1

Molecule: synthetic peptide (1-34): synthetic peptide consisting of the amino acid sequence from positions 1 to 34 of HMGB1 (MGKGDPKKPRGKMSSYAFFVQTCREEHKKKHPDA; UniProt P63158 1-34, looked up, fragment)
- migration-promoting activity [1]: activity comparable to or higher than that of the positive control

Molecule: synthetic peptide (1-44): peptide consisting of the amino acids at positions 1 to 44 of the HMGB1 protein (SEQ ID NO: 5) (MGKGDPKKPRGKMSSYAFFVQTCREEHKKKHPDASVNFSEFSKK; Synthesized peptide from the HMGB1 protein)
- migration-promoting activity [1]: activity comparable to or higher than that of the positive control
- improvement of neurologic symptoms (BMS score) ([2]; Example 4, 100 μg tail vein, Days 1-28 post operation, vs PBS, FIG. 4, listed as 1-44): therapeutic effects were observed; also recorded: effective in treating injury of the spinal cord
- improvement of neurologic symptoms (BMS score) ([2]; Example 4, 100 μg tail vein, Days 1-28 post operation, vs PBS, FIG. 4, listed as HMGB1 fragment consisting of the amino acids from positions 1 to 44): comparable therapeutic effects

Molecule: synthetic peptide (11-25): synthetic peptide consisting of the amino acid sequence from positions 11 to 25 of HMGB1 (GKMSSYAFFVQTCRE; UniProt P63158 11-25, looked up, fragment)
- migration-promoting activity [1]: found to have the activity

Molecule: synthetic peptide (11-30): synthetic peptide consisting of the amino acid sequence from positions 11 to 30 of HMGB1 (GKMSSYAFFVQTCREEHKKK; UniProt P63158 11-30, looked up, fragment)
- migration-promoting activity [1]: activity comparable to or higher than that of the positive control

Molecule: synthetic peptide (11-34): synthetic peptide consisting of the amino acid sequence from positions 11 to 34 of HMGB1 (GKMSSYAFFVQTCREEHKKKHPDA; UniProt P63158 11-34, looked up, fragment)
- migration-promoting activity [1]: activity comparable to or higher than that of the positive control

Molecule: synthetic peptide (11-44): synthetic peptide consisting of the amino acid sequence from positions 11 to 44 of HMGB1 (SEQ ID NO: 4) (GKMSSYAFFVQTCREEHKKKHPDASVNFSEFSKK; Synthesized peptide from the HMGB1 protein)
- migration-promoting activity [1]: activity comparable to or higher than that of the positive control
- improvement of neurologic symptoms (BMS score) ([2]; Example 2, 100 μg in 200 μL D-PBS, tail vein, Days 1-21 post operation, vs PBS, FIG. 2A, listed as HMGB1 fragment): significant improvement of neurologic symptoms was observed from Day 3 post operation; also recorded: remarkable improvement of symptoms was observed on Days 3, 7, 14, and 17 post operation
- improvement of neurologic symptoms (BMS score) ([2]; Example 2, 100 μg in 200 μL D-PBS, tail vein, Days 1-21 post operation, vs PBS, FIG. 2A, listed as HMGB1 fragment (11-44)): significant effects of improving neurologic symptoms were observed
- improvement of neurologic symptoms (BMS score) ([2]; Example 3, 100 μg tail vein, Days 1, 3, 7, 14, fragment vs full-length vs PBS, FIG. 3, listed as HMGB1 fragment (amino acids at positions 11-44)): most effective; also recorded: much more satisfactory improvement of the therapeutic effect
- improvement of neurologic symptoms (BMS score) ([2]; Example 4, 100 μg tail vein, Days 1-28 post operation, vs PBS, FIG. 4): therapeutic effects were observed; also recorded: effective in treating injury of the spinal cord
- improvement of neurologic symptoms (BMS score) ([2]; Example 4, 100 μg tail vein, Days 1-28 post operation, vs PBS, FIG. 4, listed as HMGB1 fragment consisting of the amino acids from positions 11 to 44): comparable therapeutic effects
- size of damaged region of the spinal cord (HE staining) ([3]; listed as HMGB1 fragment (11-44)): size of the area of injury of the spinal cord decreased
- size of damaged region of the spinal cord (HE staining) ([3]; listed as HMGB1 fragment (11-44 peptide)): reduced

Molecule: synthetic peptide (17-25): synthetic peptide consisting of the amino acid sequence from positions 17 to 25 of HMGB1 (SEQ ID NO: 3) (AFFVQTCRE; Synthesized peptide from the HMGB1 protein)
- migration-stimulating activity ([1]; 5 μM or 10 μM in lower chamber, FIG. 1B): smallest fragment with migration-stimulating activity; also recorded: smallest fragment that has the migration-stimulating activity

B1: full-length HMGB1: full-length HMGB1 protein produced by expressing it in HEK293, purified; positive control / comparator (protein, UniProt P63158 1-215, looked up)
chain: MGKGDPKKPRGKMSSYAFFVQTCREEHKKKHPDASVNFSEFSKKCSERWKTMSAKEKGKFEDMAKADKARYEREMKTYIPPKGETKKKFKDPNAPKRPPSAFFLFCSEYRPKIKGEHPGLSIGDVAKKLGEMWNNTAADDKQPYEKKAAKLKEKYEKDIAAYRAKGKPDAAKKGVVKAEKSKKKKEEEDDEEDEEDEEEEEEEEDEDEEEDDDDE
modifications: full-length
notes: full-length HMGB1 protein produced by expressing it in HEK293, purified; positive control / comparator
- improvement of neurologic symptoms (BMS score) ([2]; Example 3, 100 μg tail vein, Days 1, 3, 7, 14, fragment vs full-length vs PBS, FIG. 3): intermediate between the effect in the HMGB1 fragment (amino acids at positions 11-44)-administered group and that in the negative control group
- improvement of neurologic symptoms (BMS score) ([2]; Example 3, 100 μg tail vein, Days 1, 3, 7, 14, fragment vs full-length vs PBS, FIG. 3, listed as HMGB1 (full-length)): therapeutic effect was observed; also recorded: not as effective as that in the HMGB1 fragment
